From ChEMBL document CHEMBL3352665, “Trends in research of antitrypanosomal agents among synthetic heterocycles” (Eur J Med Chem, 2014)
Values belong to the molecule of their own block, whether it stands above or below them.

Legend:
Trypanosoma brucei [1] = test: Antitrypanosomal activity against Trypanosoma brucei assessed as growth inhibition; format: functional, organism-based
[2] = test system: Trypanosoma brucei rhodesiense; test: Antitrypanosomal activity against Trypanosoma brucei rhodesiense assessed as growth inhibition; format: functional; details: read-out: ED50 (the source's name)
[3] = Selectivity ratio for human triosephosphate isomerase to Trypanosoma cruzi triosephosphate isomerase
Trypanosoma brucei [4] = test: Antitrypanosomal activity against bloodstream forms of Trypanosoma brucei assessed as growth inhibition; format: functional, organism-based
[5] = Inhibition of Trypanosoma brucei PTR1; details: read-out: Ki(app)
Trypanosoma cruzi [6] = test: Antitrypanosomal activity against Trypanosoma cruzi assessed as growth inhibition; format: functional; details: read-out: ED50 (the source's name)
Trypanosoma brucei [7] = test: Inhibition of Trypanosoma brucei triosephosphate isomerase at 50 uM
[8] = molecular target: Triosephosphate isomerase, glycosomal (Trypanosoma cruzi) (UniProt P52270); test: Inhibition of Trypanosoma cruzi triosephosphate isomerase at 50 uM
Cruzipain = Cruzipain (Trypanosoma cruzi, UniProt P25779); test: Inhibition of Trypanosoma cruzi cruzain
Trypanosoma cruzi [9] = test: Antitrypanosomal activity against epimastigote forms of Trypanosoma cruzi Y assessed as growth inhibition; format: functional, organism-based

Sequence of Cruzipain (P25779 whole entry): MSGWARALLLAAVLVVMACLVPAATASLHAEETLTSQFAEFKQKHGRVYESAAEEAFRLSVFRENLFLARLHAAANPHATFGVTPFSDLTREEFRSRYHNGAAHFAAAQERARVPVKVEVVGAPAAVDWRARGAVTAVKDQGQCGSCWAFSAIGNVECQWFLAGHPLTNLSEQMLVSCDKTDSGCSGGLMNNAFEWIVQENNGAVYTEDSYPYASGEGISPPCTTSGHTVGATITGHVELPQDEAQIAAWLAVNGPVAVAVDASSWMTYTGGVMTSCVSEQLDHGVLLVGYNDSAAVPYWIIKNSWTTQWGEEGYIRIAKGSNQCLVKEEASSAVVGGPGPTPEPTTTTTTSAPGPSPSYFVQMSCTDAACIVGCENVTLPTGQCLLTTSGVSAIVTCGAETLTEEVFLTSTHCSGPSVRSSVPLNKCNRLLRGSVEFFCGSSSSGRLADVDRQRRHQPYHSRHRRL
Sequence of Triosephosphate isomerase, glycosomal (Trypanosoma cruzi) (P52270 whole entry): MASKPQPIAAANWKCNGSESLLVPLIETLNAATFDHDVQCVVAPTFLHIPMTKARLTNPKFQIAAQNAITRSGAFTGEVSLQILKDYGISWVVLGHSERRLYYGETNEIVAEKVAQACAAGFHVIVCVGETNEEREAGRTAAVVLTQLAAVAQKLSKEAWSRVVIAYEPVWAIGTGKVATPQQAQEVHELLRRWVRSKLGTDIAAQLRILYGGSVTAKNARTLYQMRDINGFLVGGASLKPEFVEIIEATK

SMILES: COc1ccccc1C(=O)c1cnc(NC2CCN(C(=O)Nc3ccccc3)CC2)nc1N
IC50 (Trypanosoma brucei [1]): 70 nM

SMILES: NC(=S)N/N=C(\C=C\c1ccccc1)c1ccccc1
EC50 [2]: 70 nM

SMILES: CCCC/C(=N\NC(N)=S)c1ccccc1
EC50 (Trypanosoma cruzi [6]): 3000 nM

SMILES: Nc1ccc(-c2nc3ccc(-c4ccc5nc(N)sc5c4)cc3s2)cc1
inhibition (Trypanosoma brucei [7]): > 90%
inhibition [8]: > 90%

SMILES: CC1SC(N/N=C/CCCSc2ccccc2)=NC1=O (configuration not stated)
IC50 (Cruzipain): 400 nM

SMILES: CCC1SC(N/N=C/CCSc2ccccc2)=NC1=O (configuration not stated)
IC50 (Trypanosoma cruzi [9]): 300 nM

SMILES: Cc1ccc(SCC/C=N/NC2=NC(=O)C(C)S2)cc1 (configuration not stated)
IC50 (Cruzipain): 20400 nM

The next lines start with the values.

Selectivity ratio [3]: 200
SMILES: Cc1ccc2nc(-c3ccc(N)cc3)sc2c1

EC50 (Trypanosoma brucei [4]): 10000 nM
Ki [5]: 47 nM
SMILES: CCCOc1cccc2nc(N)n(Cc3ccc(Cl)c(Cl)c3)c12

Ki [5]: 7 nM
SMILES: Nc1nc2cccc(-c3ccccc3)c2n1Cc1ccc(Cl)c(Cl)c1
